The record followed here is patent US6410528B1, “Morpholino ethers” (Glaxo Wellcome S.A., priority 1998, dated 2002).

Converted amounts (≈) assume the structure as drawn.

What all share (experiment): in vitro antifungal screen, MIC by two-fold serial dilution
The subject of one experiment is C. albicans 4711E. The format is cell-based, Candida albicans. Here is the method: (§1) The antifungal activity of the compounds of formula (I) may be determined using conventional in vitro and in vivo screens. Thus, the in vitro evaluation of the anti-fungal activity of compounds of the invention was performed on liquid or solid medium by the anti-fungal two-fold serial dilution technique of determining the minimum inhibitory concentration (MIC) of anti-fungal agent that inhibited development of growth after 24 to 48 hours of incubation at 37° C. In practice, a series of agar plates or broth microdilution panels containing two-fold dilutions of anti-fungal agent tested were inoculated with a standard culture of a clinically relevant pathogen, for example, Candida albicans. The agar plates or broth microdulution panels were then examined for the presence or absence of growth of the fungus and the appropriate MIC values were noted.
(§2) Compounds of formula (I) have been tested for anti fungal activity in a standard in vitro screen and the minimum inhibiting concentration (MIC; μg/ml) determined for each compound against a variety of clinically relevant pathogens.

A further experiment concerns C. albicans CL-236. The experiment is classed as cell-based, Candida albicans. Here is the method: as §1, §2
A further experiment has as its system C. tropicalis 2808E. The format is cell-based, Candida tropicalis. Here is the method:
as §1, §2

In the next experiment the test system is C. parapsilosis 2372E. The format is cell-based, Candida parapsilosis. The procedure: as §1, §2
The next experiment relates to C. glabrata 522. The format is cell-based, Candida glabrata. The procedure:
as §1, §2

For a further experiment, the system named is C. glabrata 2375E. The format is cell-based, Candida glabrata. The procedure: as §1, §2
Experiment [1] has as its system C. pseudotropicalis 2371E. The experiment is classed as cell-based, Candida pseudotropicalis. The procedure:
as §1, §2

In the case of `CC1CN(Cc2ccccc2)CC(OCC23CC4C(C)CCC4C4(C=O)CC2C=C(C(C)C)C43C(=O)O)O1` [Example 1i, [1R-(1α,3aβ,4β,4aβ,7β,7aα,8aβ)]8a-[(2R,6R)-(4-benzyl-6-methylmorpholin-2-yl)-oxymethyl]-4-formyl-4,4a,5,6,7,7a,8,8a-octahydro-7-methyl-3-(1-methylethyl)-1,4-methano-s-indacene-3a(1H)-carboxylic acid], the MIC result against C. albicans 4711E was “≦0.001 μg/ml”; in the experiment with C. albicans CL-236, “≦0.001 μg/ml”; in the experiment on C. tropicalis 2808E, 0.008 µg/mL (≈ 0.0153 µM); with C. parapsilosis 2372E, over 125 µg/mL; in the experiment on C. glabrata 522, 1 µg/mL (≈ 1.92 µM); with C. glabrata 2375E it was 1 µg/mL (≈ 1.92 µM).

`CC1CN(C2CC2)CC(OCC23CC4C(C)CCC4C4(C=O)CC2C=C(C(C)C)C43C(=O)[O-])O1.[K+]` [Example 4, [1R-(1α,3aβ,4β,4aβ,7β,7aα,8aβ)]8a-[(2R,6R)-(4-cyclopropyl-6-methyl-morpholin-2-yl)-oxymethyl]-4-formyl-4,4a,5,6,7,7a,8,8a-octahydro-7-methyl-3-(1-methylethyl)-1,4-methano-s-indacene-3a(1H)-carboxylic acid, potassium salt]: the MIC result is “≦0.001 μg/ml” with C. albicans 4711E; 0.015 µg/mL against C. albicans CL-236; 0.06 µg/mL in the experiment on C. tropicalis 2808E; 0.004 µg/mL in experiment [1]; over 125 µg/mL in the experiment on C. parapsilosis 2372E; 4 µg/mL in the experiment with C. glabrata 522. The same compound had an MIC with C. glabrata 2375E of 4 µg/mL.

On to `C#CCN1CC(C)OC(OCC23CC4C(C)CCC4C4(C=O)CC2C=C(C(C)C)C43C(=O)O)C1` [Example 6, [1R-(1α,3aβ,4β,4aβ,7β,7aα,8aβ)]8a-[(2R,6R)-(4-(2-propynyl)-6-methyl-morpholin-2-yl)-oxymethyl]-4-formyl-4,4a,5,6,7,7a,8,8a-octahydro-7-methyl-3-(1-methylethyl)-1,4-methano-s-indacene-3a(1H)-carboxylic acid], for which the MIC was 0.008 µg/mL (≈ 0.017 µM) in the experiment with C. albicans 4711E; 0.015 µg/mL (≈ 0.0319 µM) against C. albicans CL-236; 0.06 µg/mL (≈ 0.128 µM) in the experiment on C. tropicalis 2808E; 0.015 µg/mL (≈ 0.0319 µM) in experiment [1]; 16 µg/mL (≈ 34.1 µM) with C. parapsilosis 2372E; 0.5 µg/mL (≈ 1.06 µM) against C. glabrata 522. In the experiment on C. glabrata 2375E, this compound had an MIC of 0.25 µg/mL (≈ 0.532 µM).

Turning to `C=C(Br)CN1CC(C)OC(OCC23CC4C(C)CCC4C4(C=O)CC2C=C(C(C)C)C43C(=O)O)C1` [Example 7, [1R-(1α,3aβ,4β,4aβ,7β,7aα,8aβ)]8a-[(2R,6R)-(4-(2-bromoallyl)-6-methyl-morpholin-2-yl)-oxymethyl]-4-formyl-4,4a,5,6,7,7a,8,8a-octahydro-7-methyl-3-(1-methylethyl)-1,4-methano-s-indacene-3a(1H)-carboxylic acid], the MIC entry is “≦0.001 μg/ml” against C. albicans 4711E; 0.008 µg/mL (≈ 0.0145 µM) against C. albicans CL-236; 0.008 µg/mL (≈ 0.0145 µM) with C. tropicalis 2808E; “≦0.001 μg/ml” in experiment [1]; 4 µg/mL (≈ 7.27 µM) against C. parapsilosis 2372E; 0.25 µg/mL (≈ 0.454 µM) against C. glabrata 522. For the same compound, the minimal inhibitory concentration (MIC) against C. glabrata 2375E worked out at 0.25 µg/mL (≈ 0.454 µM).

For `C=C(Cl)CN1CC(C)OC(OCC23CC4C(C)CCC4C4(C=O)CC2C=C(C(C)C)C43C(=O)O)C1` (stereo not drawn) [Example 8, [1R-(1α,3aβ,4β,4aβ,7β,7aα,8aβ)]8a-[(2R6R)-(4-(2-chloroallyl)-6-methyl-morpholin-2-yl)-oxymethyl]-4-formyl-4,4a,5,6,7,7a,8,8a-octahydro-7-methyl-3-(1-methylethyl)-1,4-methano-s-indacene-3a(1H)-carboxylic acid], the MIC entry in the experiment with C. albicans 4711E is “≦0.001 μg/ml”; against C. albicans CL-236 it was “≦0.001 μg/ml”; against C. tropicalis 2808E, “≦0.001 μg/ml”; in experiment [1] it was “≦0.001 μg/ml”; in the experiment on C. parapsilosis 2372E it was 1 µg/mL (≈ 1.98 µM); in the experiment on C. glabrata 522, 0.03 µg/mL (≈ 0.0593 µM). The same compound displayed an MIC against C. glabrata 2375E of 0.03 µg/mL (≈ 0.0593 µM).

With `CC1CN(CC=C(F)F)CC(OCC23CC4C(C)CCC4C4(C=O)CC2C=C(C(C)C)C43C(=O)O)O1` [Example 10, [1R-(1α,3aβ,4β,4aβ,7β,7aα,8aβ)]8a-[(2R,6R)-(4-(3,3-difluoroallyl)-6-methyl-morpholin-2-yl)-oxymethyl]-4-formyl-4,4a,5,6,7,7a,8,8a-octahydro-7-methyl-3-(1-methylethyl)-1,4-methano-s-indacene-3a(1H)-carboxylic acid], the MIC amounted to 0.03 µg/mL (≈ 0.0591 µM) in the experiment on C. albicans 4711E; 0.06 µg/mL (≈ 0.118 µM) in the experiment on C. albicans CL-236; 0.06 µg/mL (≈ 0.118 µM) against C. tropicalis 2808E; 0.03 µg/mL (≈ 0.0591 µM) in experiment [1]; 16 µg/mL (≈ 31.5 µM) against C. parapsilosis 2372E; 1 µg/mL (≈ 1.97 µM) against C. glabrata 522. The compound further returned an MIC against C. glabrata 2375E of 1 µg/mL (≈ 1.97 µM).

As to `C=C(C)CN1C[C@H](OC[C@@]23C[C@@H]4[C@H](C)CC[C@H]4[C@@]4(C=O)C[C@@H]2C=C(C(C)C)[C@@]34C(=O)O)O[C@H](C)C1` [Example 12], the minimal inhibitory concentration (MIC) result was “≦0.001 μg/ml” with C. albicans 4711E; “≦0.001 μg/ml” in the experiment with C. albicans CL-236; 0.008 µg/mL (≈ 0.0165 µM) in the experiment with C. tropicalis 2808E; “≦0.001 μg/ml” in experiment [1]; 1 µg/mL (≈ 2.06 µM) in the experiment with C. parapsilosis 2372E; 0.25 µg/mL (≈ 0.515 µM) against C. glabrata 522. Moreover, the MIC in the experiment on C. glabrata 2375E is 0.25 µg/mL (≈ 0.515 µM).

As for `C=C=CCN1CC(C)OC(OCC23CC4C(C)CCC4C4(C=O)CC2C=C(C(C)C)C43C(=O)O)C1` [Example 14, [1R-(1α,3aβ,4β,4aβ,7β,7aα,8aβ)]8a-[(2R,6R)-4-(2,3-butadienyl)-6-methyl-morpholin-2-yl)-oxymethyl]-4-formyl-4,4a,5,6,7,7a,8,8a-octahydro-7-methyl-3-(1-methylethyl)-1,4-methano-s-indacene-3a(1H)-carboxylic acid], the MIC result with C. albicans 4711E is “≦0.001 μg/ml”; in the experiment with C. albicans CL-236 it was 0.004 µg/mL (≈ 0.00827 µM); against C. tropicalis 2808E it was 0.015 µg/mL (≈ 0.031 µM); in experiment [1] it was “≦0.001 μg/ml”; against C. parapsilosis 2372E, 8 µg/mL (≈ 16.5 µM); against C. glabrata 522 it was 0.12 µg/mL (≈ 0.248 µM). Besides, the MIC in the experiment on C. glabrata 2375E came to 0.12 µg/mL (≈ 0.248 µM).

Regarding `COc1ccc(CN2CC(C)OC(OCC34CC5C(C)CCC5C5(C=O)CC3C=C(C(C)C)C54C(=O)O)C2)cc1` [Example 16, [1R-(1α,3aβ,4β,4aβ,7β,7aα,8β)]8a-[(2R,6R)4-(4-methoxybenzyl)-6-methyl-morpholin-2-yl)-oxymethyl]-4-formyl-4,4a,5,6,7,7a,8,8a-octahydro-7-methyl-3-(1-methylethyl)-1,4-methano-s-indacene-3a(1H)-carboxylic acid], the MIC result was “≦0.001 μg/ml” against C. albicans 4711E; “≦0.001 μg/ml” in the experiment on C. albicans CL-236; 0.008 µg/mL (≈ 0.0145 µM) with C. tropicalis 2808E; “≦0.001 μg/ml” in experiment [1]; 2 µg/mL (≈ 3.63 µM) against C. parapsilosis 2372E; 0.25 µg/mL (≈ 0.453 µM) in the experiment with C. glabrata 522. In addition, the MIC against C. glabrata 2375E is 0.25 µg/mL (≈ 0.453 µM).

Regarding `CON1CC(C)OC(OCC23CC4C(C)CCC4C4(C=O)CC2C=C(C(C)C)C43C(=O)O)C1` [Example 18, 1R-(1α,3aβ,4β,4aβ,7β,7aα,8aβ)]8a-[(2R,6R)-6-methyl-4-methoxy-morpholin-2-yl)-oxymethyl]-4-formyl-4,4a,5,6,7,7a,8,8a-octahydro-7-methyl-3-(1-methylethyl)-1,4-methano-s-indacene-3a(1H)-carboxylic acid], the minimum inhibitory concentration (MIC) was 0.03 µg/mL (≈ 0.065 µM) with C. albicans 4711E; 0.25 µg/mL (≈ 0.542 µM) in the experiment on C. albicans CL-236; 1 µg/mL (≈ 2.17 µM) against C. tropicalis 2808E; over 125 µg/mL with C. parapsilosis 2372E; 8 µg/mL (≈ 17.3 µM) with C. glabrata 522; 8 µg/mL (≈ 17.3 µM) in the experiment on C. glabrata 2375E.

As for `C=CCN1C[C@H](OC[C@@]23C[C@@H]4[C@H](C)CC[C@H]4[C@@]4(C#N)C[C@@H]2C=C(C(C)C)[C@@]34C(=O)O)O[C@H](C)C1` [Example 25, [1R-(1α,3aβ,4β,4aβ,7β,7aα,8aβ)]8a-[(2R,6R)-(4-allyl-6-methyl-morpholin-2-yl)-oxymethyl]-4-cyano4,4a,5,6,7,7a,8,8a-octahydro-7-methyl-3-(1-methylethyl)-1,4-methano-s-indacene-3a(1H)-carboxylic acid], the MIC is 0.25 µg/mL (≈ 0.533 µM) in the experiment on C. albicans 4711E; 0.25 µg/mL (≈ 0.533 µM) with C. albicans CL-236; 0.5 µg/mL (≈ 1.07 µM) against C. tropicalis 2808E; 0.12 µg/mL (≈ 0.256 µM) in experiment [1]; over 125 µg/mL with C. parapsilosis 2372E; 0.5 µg/mL (≈ 1.07 µM) with C. glabrata 522. The compound further gave an MIC against C. glabrata 2375E of 0.5 µg/mL (≈ 1.07 µM).

Usually MIC stands for the lowest concentration that inhibits growth of the organism. Low values mean inhibition by little substance, high ones a need for much substance.
